Laboratory results published in patent publication US20100010092A1, “USE OF MODAFINIL TO TREAT RESTLESS LEG SYNDROME” (Arless Ltd., priority 2006, published 2010).
Where a name gives a salt, the structure may show the parent alone.

Key:
[1] = system: restless leg syndrome and PLMS, and Primary snoring; assay: Overnight polysomnographic sleep study, evening dosage; type: in vivo, human; settings: oral 50 mg in the evening, versus baseline without drug
Excerpt: A non-obese subject with no outstanding medical history other than restless leg syndrome and PLMS of 6 years duration, and Primary snoring, 60 kg, was entered into an overnight sleep study in a specialist hospital sleep disorder center. […] Snoring as represented by the Snore Index was reduced 70%.

[2] = system: PLMD and RLS and Primary snoring; assay: Case reports: patient with sleep study diagnosed PLMD, RLS and Primary snoring taking the drug orally; type: in vivo, human; settings: for RLS and PLMD symptoms on chronic use: symptoms returned immediately after stopping
Procedure: An otherwise healthy non-obese person with sleep study diagnosed PLMD and RLS and Primary snoring without apnea, 61 kg, took Requip, ropinirole HCL from 0.25 to 0.75 mg orally per day for PLMS and RLS for a period of over 8-12 months. PLM were severe enough to occasionally awaken them from sleep. […] Multiple attempts at gaining relief were made over a period of 8-12 months. These attempts failed. […]

[3] = doses up to 400 mg per day, given as a single dose; cited from earlier work
RLS = settings: moderate to severe RLS; cited from earlier work
[4] = cited from earlier work; for share of trough concentration (Cminss) of circulating modafinil: after once daily dosing of racemic modafinil
[5] = 50 mg by mouth 1-3 hours prior to bedtime
[6] = 50 mg by mouth between 8 am and noon
[7] = 50 mg or 25 mg by mouth in the morning

NC(=O)C[S+]([O-])C(c1ccccc1)c1ccccc1 (racemic) [modafinil, 2-[(diphenylmethyl)sulfiny]acetamide]
PLMs during sleep [1]: not detected | reduction of snoring as represented by the Snore Index [1]: 70% | symptoms ([2]; 25 mg as needed, evening dosage): either completely relieved or greatly diminished | removal of symptoms at lower dosage ([2]; 25 mg by mouth in the morning): failed to entirely remove symptoms | limb movements and the urge to move the limb and associated sensations while awake [2, 5]: greatly reduced | time until limb movements and urge were greatly reduced [2, 5]: approximately 90 minutes | leg jerks during sleep observed by partner [2, 6]: no leg jerks during sleep were observed | limb movements and snoring while asleep noticed by partner [2, 6]: absence of limb movements and snoring | restfulness noted by patient [2, 6]: increased restfulness | urge to move legs in the evenings [2, 6]: No urge to move legs in the evenings occurred | limb movements and the urge to move the limb and associated sensations while awake [2, 7]: greatly reduced | snoring noted by sleep partner [2, 7]: marked decrease in snoring | leg jerks during sleep observed by partner ([2]; 100 mg by mouth in the morning): no leg jerks during sleep were observed | limb movements and snoring while asleep noticed by partner ([2]; 100 mg by mouth in the morning): absence of limb movements and snoring | restfulness noted by patient ([2]; 100 mg by mouth in the morning): increased restfulness | urge to move legs in the evenings ([2]; 100 mg by mouth in the morning): No urge to move legs in the evenings occurred | RLS and PLMD symptoms on chronic use ([2]; evening dosage, every day for periods of 5 to 7 days): periods free from RLS and PLMD symptoms | RLS and PLMD symptoms on chronic use ([2]; morning dosage 50 or 25 mg, every day for periods of up to 11 days): periods free from RLS and PLMD symptoms | tolerability [3]: well tolerated

CCCN(CCC)CCc1cccc2c1CC(=O)N2 [Requip, ropinirole HCL]
PLMS according to the partner ([2]; ropinirole HCL 0.25 to 0.75 mg orally per day, over 8-12 months): PLMS continued | relief of RLS/PLMS symptoms ([2]; ropinirole HCL 0.25 to 0.75 mg orally per day, over 8-12 months, person): did not relieve symptoms | additional complications reported by patients (RLS): constipation and daytime sleepiness

NC(=O)C[S@@+]([O-])C(c1ccccc1)c1ccccc1 [I-isomer, r-2-((diphenylmethyl)sulfinyl)-acetamide]
share of trough concentration (Cminss) of circulating modafinil [4]: 90% | total exposure at steady state relative to that for the d-isomer ([4]; taken orally, steady state): approximately three

NC(=O)C[S+]([O-])C(c1ccccc1)c1ccccc1 (single isomer, unassigned) [d-isomer]
share of trough concentration (Cminss) of circulating modafinil [4]: 10%
